# Experimental data taken from patent US20160244755A1, “TREATING DISEASES ASSOCIATED WITH PGC1-ALPHA BY MODULATING MICRORNAS MIR-130A AND MIR-130B” (ACADEMIA SINICA;, priority 2013, published 2016).
# “Also recorded” adds a separate entry of the source. Like-named read-outs stand apart in the source and are kept apart here.
# Tests used:
# Type in all cases: cell-based, human
# 3′ UTR of PGC1α = test: compensatory mutagenesis luciferase cotransfection assay, PGC1α 3′UTR
# Procedure: (§1) Assay for 3′ UTR or enhancer/promoter was as described previously. Chen, H. L., et al., PloS one 7, e34116 (2012).
# To distinguish between a direct and an indirect mechanism of miR-130a on reducing PGC1α mRNA, a reporter assay was performed using 3′UTR from either PPARγ or PGC1α. […] Next, compensatory mutations were introduced into the seed sequences of miR-130a and its evolutionarily conserved target site of PGC1α (FIG. 10). […] In a dose-dependent manner, miR-130a could reduce, while LNA-miR-130a could increase, the luciferase activity of a reporter containing the 3′UTR of PGC1α (FIG. 11).
# HepG2 cells = test: measurement of glucose production in cell culture; design: glucose production: dose or concentration left out as unconfirmed
# Procedure: Rosiglitazone and GW9662 were from Sigma. HepG2 and Huh7 cells were seeded in 6-well tissue culture plates at 5×10, Quasdorff, M. et al. Journal of viral hepatitis 17, 527-536 (2010) cells/well. At 24 h post-transfection, Rosiglitazone or GW9662 in 0.1% DMSO was added to medium. Culture medium was changed ever two days before harvest.
# The glucose level of HBV transgenic mice was measured using a kit of DRI-CHEM SLIDE GLU-PIII (FUJIFILM, JAPAN). Ten microliters of mouse serum was deposited on a FUJI DRI-CHEM SLIDE GLU-PIII. Glucose oxidase (GOD) catalyzes the oxidization of sample glucose to generate hydrogen peroxide which then reacts with dye precursors and forms red dye. The optical reflection density was measured at 505 nm by the FUJI DRI-CHEM analyzer and converted into the glucose concentration […]. For the measurement of glucose concentration in cell culture, HBV producing cells (HepG2 and Q7 cells) were treated with PPARγ antagonist, GW9662 at indicated concentrations. Twenty-four hours before glucose measurement, the medium was replaced with 1 ml of glucose-free DMEM, supplemented with 2 mM sodium pyruvate. After 16 hrs incubation, 50 μl of medium was collected and the glucose concentration (mM) was measured using the glucose colorimetric assay (Biovision).
# miR-130a = miR-130a expression in PPARγ-expressing HepG2 cell lines (stem-loop qPCR); conditions: stable PPARγ-expressing HepG2 cell lines, U6 snRNA internal control
# Procedure: Rosiglitazone and GW9662 were from Sigma. […] At 24 h post-transfection, Rosiglitazone or GW9662 in 0.1% DMSO was added to medium. Culture medium was changed ever two days before harvest.
# Briefly, 100 ng RNAs were reverse transcribed by specific stem-loop primer and further analyzed by Taqman real-time PCR assay using default setting. […] Data were analyzed by Applied Biosystems 7500 software V2.0.1.
# PGC1α mRNA = PGC1α mRNA in stable miR-130a expressing cell lines (Northern blot, RT-qPCR); conditions: stable miR-130a expressing HepG2 cell lines
# Procedure: (§2) Briefly, 2 μg of total RNA was reverse transcribed into cDNA using random primers and High Capacity cDNA Reverse Transcription kit (Applied Biosystem) at 37° C. for 120 minutes. The cDNA product was then diluted 100 times for real-time PCR analysis using Power SYBR Green PCR master mix (Applied Biosystem), and the default condition in a 20 μl reaction volume by Applied Biosystems 7500 Real-Time PCR System. Data were analyzed by relative quantification methods (AACt methods) using 7500 software V2.0.1.
# (§3) HBV core particle-associated DNA, total cellular cytoplasmic RNA, and microRNA were analyzed by Northern blot as described previously. Chua, P. K., et al. Journal of virology 84, 2340-2351 (2010), Le Pogam, S., et al., Journal of virology 79, 1871-1887 (2005).
# (§4) Approximately one million Huh7 and HepG2 cells were transiently transfected by 3 μg plasmid DNA (pSuper and pSuper-miR-130a) with Polyjet (SignaGen), followed by G418 selection for three weeks. The G418-resistant colonies were pooled together.
# PPARγ mRNA = PPARγ mRNA in stable miR-130a expressing cell lines (Northern blot, RT-qPCR); conditions: stable miR-130a expressing HepG2 cell lines
# Procedure: as §2, §3, §4
# PGC1α = PGC1α protein in stable miR-130a expressing cells (Western blot)
# Source text: (§5) Anti-HBc (Dako), anti-PPARγ (Santa Cruz), anti-GAPDH, anti-PKLR, anti-G6Pase, anti-tubulin, anti-adiponectin (GeneTex, Taiwan), anti-PGC1α (Origene), anti-PCK1 (Abnova), anti-GCK (Biovision), Secondary antibodies include mouse anti-rabbit-HRP, goat anti-mouse-HRP (GeneTex, Taiwan) and donkey anti-goat-HRP (Santa Cruz).
# (§6) Native agarose gel electrophoresis and Western blot for detecting HBV core particles were as described. Chua, P. K., et al. Journal of virology 84, 2340-2351 (2010),
# as §4
# PPARγ = PPARγ protein in stable miR-130a expressing cells (Western blot)
# Source text: as §5, §6, §4
# adiponectin [1] = test: adiponectin protein in stable miR-130a expressing cells (Western blot)
# Source text: as §5, §6, §4
# adiponectin [2] = test: secreted adiponectin ELISA, miR-130a expressing cell lines
# Procedure: The concentration of secreted adiponectin was measured by ELISA (Biovision). ELISA of HBsAg and HBeAg was from General Biologicals Co., Taiwan.
# as §4
# SP1 = SP1 protein in stable miR-130a expressing HepG2 cell lines (Western blot)
# Procedure: as §6, §4
# PPARα = PPARα protein in stable miR-130a expressing HepG2 cell lines (Western blot)
# Procedure: as §6, §4
# CEBPb = CEBPb protein in stable miR-130a expressing HepG2 cell lines (Western blot)
# Procedure: as §6, §4
# HNF4 = HNF4 protein in stable miR-130a expressing HepG2 cell lines (Western blot)
# Procedure: as §6, §4
# [3] = test system: 3′ UTR of PGC1α (NM_013261); test: luciferase reporter cotransfection assay, 3′ UTR of PGC1α; conditions: for luciferase activity, reporter with 3′ UTR of PGC1α: reporter cotransfection assay
# Source text: as §1
# [4] = test system: 3′ UTR of PPARγ (NM_005037); test: luciferase reporter cotransfection assay, 3′ UTR of PPARγ
# Source text: as §1
# G6Pase mRNA = G6Pase mRNA in stable miR-130a expressing HepG2 cells (Northern blot)
# Procedure: as §3, §4
# PEPCK mRNA = PEPCK mRNA in stable miR-130a expressing HepG2 cells (Northern blot)
# Procedure: as §3, §4
# G6Pase = G6Pase protein in miR-130a expressing hepatocytes (Western blot)
# Source text: as §5, §6, §4
# PEPCK = PEPCK protein in miR-130a expressing hepatocytes (Western blot)
# Source text: as §5, §6, §4
# glucokinase (GCK) = glucokinase (GCK) protein in stable miR-130a expressing HepG2 cells (Western blot)
# Source text: as §5, §6, §4
# pyruvate kinase (PKLR) = pyruvate kinase (PKLR) protein in stable miR-130a expressing cells (Western blot); conditions: stable miR-130a expressing Huh? cells
# Source text: as §5, §6, §4
# GCK mRNA = GCK mRNA in stable miR-130a expressing cells (RT-qPCR)
# Procedure: as §2, §4
# PKLR mRNA = PKLR mRNA in stable miR-130a expressing cells (RT-qPCR)
# Procedure: as §2, §4
molecule,measurement,setting,value
"mutant miR-130a: miR-130a with compensatory mutations in the seed sequence, SEQ ID NO: 69 (CUGAGCAAUGUUAAAAGGGCAU; listed as RNA, chemistry not given here) [reference compound]","luciferase activity, mutant PGC1α 3′UTR target site","3′ UTR of PGC1α; combination of mutant miR-130a and mutant PGC1α, cotransfection",restore the inhibitory effect
O=C(Nc1ccccc1)c1cc([N+](=O)[O-])ccc1Cl [GW9662],glucose production,"HepG2 cells; HepG2 cells, irrespective of HBV-producing status",further increased; also recorded: increase
same,expression of miR-130a,miR-130a,not
miR-130a: human microRNA comprising CAGUGCAAUGUUAAAAGGGCAU (SEQ ID NO:1); expressed from pSuper-miR-130a in stable cell lines,PGC1α mRNA,PGC1α mRNA,reduction
same,PPARγ mRNA,PPARγ mRNA,reduction
same,PGC1α protein,PGC1α,reduction
same,PPARγ protein,PPARγ,reduction
same,adiponectin protein,adiponectin [1],reduction
same,secreted adiponectin,adiponectin [2],significantly reduced; also recorded: reduction
same,protein level of SP1,SP1,No appreciable difference
same,protein level of PPARα,PPARα,No appreciable difference
same,protein level of CEBPb,CEBPb,No appreciable difference
same,protein level of HNF4,HNF4,No appreciable difference
same,PGC1α 3′UTR luciferase reporter activity with increasing amounts,"[3]; dose response, co-transfection",reduce; also recorded: decreasing reporter activity in a dose response manner
same,"luciferase activity, reporter with 3′ UTR of PGC1α",[3],functional interaction
same,"luciferase activity, reporter with 3′ UTR of PGC1α",[3]; listed as MiR-130a,significantly reduced
same,"luciferase activity, reporter with 3′ UTR of PPARγ",[4],functional interaction
same,"luciferase activity, reporter with 3′ UTR of PPARγ",[4]; listed as MiR-130a,significantly reduced
same,direct targeting of 3′ UTR of PGC1α by compensatory mutagenesis,3′ UTR of PGC1α; p<0.05,directly target
same,G6Pase mRNA expression,G6Pase mRNA,reductions; also recorded: reduced
same,PEPCK mRNA expression,PEPCK mRNA,reductions; also recorded: reduced
same,G6Pase protein expression,G6Pase,reductions; also recorded: Reduced
same,PEPCK protein expression,PEPCK,reductions; also recorded: Reduced
same,glucokinase (GCK) protein level,glucokinase (GCK),not reduced but increased; also recorded: increased level
same,pyruvate kinase (PKLR) protein level,pyruvate kinase (PKLR),not reduced but increased; also recorded: increased level
same,GCK specific mRNA level,GCK mRNA,increased
same,PKLR specific mRNA level,PKLR mRNA,increased
same,glucose level,HepG2 cells; control vs miR-130a producing cells,No significant difference
